Laboratory results reported in the NIST ThermoML archive (doi:10.1016/j.fluid.2016.10.005).
Numbers after ± are expanded uncertainties.

Assay: molar heat capacity at constant pressure; mn = molality of the nth substance listed, in mol/kg
Conditions: 101 kPa, Liquid, DSC

CCCCCOCCOCCOCCO [ethanol, 2-[2-[2-(pentyloxy)ethoxy]ethoxy]-] + O
molar heat capacity at constant pressure [J/K/mol]
Conditions	278.15 K	283.15 K	288.15 K	293.15 K	298.15 K
m1 = 0.0166	75.93 ± 2.9	75.77 ± 2.9	75.66 ± 2.9	75.59 ± 2.9	75.56 ± 2.9
m1 = 0.0321	76.16 ± 3	76 ± 2.9	75.9 ± 2.9	75.83 ± 2.9	75.8 ± 2.9
m1 = 0.0392	76.27 ± 3	76.11 ± 2.9	76 ± 2.9	75.94 ± 2.9	75.91 ± 2.9
m1 = 0.06	76.59 ± 3	76.43 ± 3	76.32 ± 3	76.26 ± 3	76.22 ± 3
m1 = 0.0876	77.01 ± 3	76.85 ± 3	76.74 ± 3	76.68 ± 3	76.64 ± 3
m1 = 0.1214	77.52 ± 3	77.36 ± 3	77.26 ± 3	77.2 ± 3	77.15 ± 3
m1 = 0.1388	77.79 ± 3	77.63 ± 3	77.53 ± 3	77.47 ± 3	77.42 ± 3
m1 = 0.1661	78.19 ± 3	78.05 ± 3	77.95 ± 3	77.9 ± 3	77.85 ± 3
m1 = 0.1861	78.49 ± 3	78.35 ± 3	78.26 ± 3	78.21 ± 3	78.16 ± 3
m1 = 0.2119	78.88 ± 3.1	78.75 ± 3.1	78.66 ± 3	78.62 ± 3	78.57 ± 3
m1 = 0.2272	79.1 ± 3.1	78.99 ± 3.1	78.91 ± 3.1	78.86 ± 3.1	78.81 ± 3.1
m1 = 0.2499	79.44 ± 3.1	79.34 ± 3.1	79.27 ± 3.1	79.22 ± 3.1	79.18 ± 3.1
m1 = 0.2726	79.77 ± 3.1	79.7 ± 3.1	79.64 ± 3.1	79.59 ± 3.1	79.56 ± 3.1
m1 = 0.2949	80.1 ± 3.1	80.06 ± 3.1	80.02 ± 3.1	79.97 ± 3.1	79.97 ± 3.1
m1 = 0.314	80.39 ± 3.1	80.37 ± 3.1	80.34 ± 3.1	80.32 ± 3.1	80.49 ± 3.1
m1 = 0.3353	80.72 ± 3.1	80.73 ± 3.1	80.72 ± 3.1	80.85 ± 3.1	–
m1 = 0.3562	81.05 ± 3.1	81.08 ± 3.1	81.12 ± 3.1	81.34 ± 3.2	–
m1 = 0.3851	81.51 ± 3.2	81.58 ± 3.2	81.77 ± 3.2	81.87 ± 3.2	–
m1 = 0.4069	81.92 ± 3.2	82.17 ± 3.2	82.36 ± 3.2	82.27 ± 3.2	–
m1 = 0.426	82.31 ± 3.2	82.58 ± 3.2	82.73 ± 3.2	82.55 ± 3.2	–
m1 = 0.4405	82.64 ± 3.2	82.93 ± 3.2	82.99 ± 3.2	82.77 ± 3.2	–
m1 = 0.4693	83.38 ± 3.2	83.6 ± 3.2	83.45 ± 3.2	83.15 ± 3.2	–
m1 = 0.4858	83.82 ± 3.2	83.98 ± 3.3	83.71 ± 3.2	83.35 ± 3.2	–
m1 = 0.5111	84.48 ± 3.3	84.45 ± 3.3	84.09 ± 3.3	83.67 ± 3.2	–
m1 = 0.5381	85.09 ± 3.3	84.88 ± 3.3	84.46 ± 3.3	84 ± 3.3	–
m1 = 0.5586	85.48 ± 3.3	85.2 ± 3.3	84.75 ± 3.3	84.26 ± 3.3	–
m1 = 0.5849	85.92 ± 3.3	85.58 ± 3.3	85.09 ± 3.3	84.59 ± 3.3	–
m1 = 0.6026	86.2 ± 3.3	85.82 ± 3.3	85.31 ± 3.3	84.76 ± 3.3	–
m1 = 0.6299	86.63 ± 3.4	86.13 ± 3.3	85.61 ± 3.3	85.06 ± 3.3	–
m1 = 0.668	87.17 ± 3.4	86.57 ± 3.4	86.02 ± 3.3	85.47 ± 3.3	–
m1 = 0.7037	87.62 ± 3.4	86.92 ± 3.4	86.38 ± 3.3	85.83 ± 3.3	–
m1 = 0.731	87.93 ± 3.4	87.19 ± 3.4	86.64 ± 3.4	86.08 ± 3.3	–
m1 = 0.7714	88.33 ± 3.4	87.59 ± 3.4	87 ± 3.4	86.43 ± 3.3	–
m1 = 0.8141	88.74 ± 3.4	88.03 ± 3.4	87.41 ± 3.4	86.86 ± 3.4	–
m1 = 0.8293	88.85 ± 3.4	88.14 ± 3.4	87.53 ± 3.4	86.96 ± 3.4	–
m1 = 0.8679	89.21 ± 3.5	88.51 ± 3.4	87.87 ± 3.4	87.32 ± 3.4	–
m1 = 0.9125	89.61 ± 3.5	88.91 ± 3.4	88.26 ± 3.4	87.74 ± 3.4	–
m1 = 0.9573	90.05 ± 3.5	89.36 ± 3.5	88.69 ± 3.4	88.18 ± 3.4	–
